One test deals with T1, human ENT1 (Homo sapiens, UniProt Q99808).
T1 construct: JAR cells expressing ENT1 were bought from ATCC® (HTB-144TM); host or cells: JAR cells (human choriocarcinoma line, own knowledge)
T1 sequence (Q99808 1-456): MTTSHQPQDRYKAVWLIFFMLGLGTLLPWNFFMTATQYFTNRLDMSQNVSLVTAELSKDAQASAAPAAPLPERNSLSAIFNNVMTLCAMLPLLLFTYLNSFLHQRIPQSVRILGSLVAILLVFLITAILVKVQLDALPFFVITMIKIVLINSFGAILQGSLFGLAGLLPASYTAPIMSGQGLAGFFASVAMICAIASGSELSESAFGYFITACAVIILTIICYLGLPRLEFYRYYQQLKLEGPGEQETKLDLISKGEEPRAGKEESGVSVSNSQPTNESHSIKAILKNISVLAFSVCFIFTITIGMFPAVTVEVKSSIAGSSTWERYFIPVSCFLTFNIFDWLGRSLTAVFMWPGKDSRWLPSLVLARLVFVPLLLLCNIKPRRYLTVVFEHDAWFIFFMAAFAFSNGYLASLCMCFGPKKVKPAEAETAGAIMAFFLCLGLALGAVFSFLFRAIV
In words: ENT1 binding assay (competition with Sahenta-DY647). The following applies: JAR cells expressing ENT1; competition with Sahenta-DY647 (100 nM); 4° C. The method, then: The present assay aims at showing that the compounds of the present disclosure can bind to human ENT1. The principle of the assay is a competition between the compounds of this present disclosure and Sahenta-DY647, an ENT1 inhibitor that emits fluorescence (Ex=630 nm, Em=670 nm). By measuring the fluorescence at the end of the assay we could assess the binding potency of the compounds of the present disclosure.
JAR cells expressing ENT1 were bought from ATCC® (HTB-144TM). Cells were cultured in RPMI 1640 medium (LONZA®, #BE12-702F/U1) supplemented with 10% FBS (GIBCO®, #10270-106), 10 mM Hepes (LONZA®, #BE17-737E), 1 mM Sodium Pyruvate (LONZA®, #BE13-115E) and 2% Penicillin/Streptomycin (LONZA®, #DE17-603E) at 37° C. and 5% CO2. The assay was conducted on the following buffer: HBSS (LONZA®, #LO-527F) supplemented with 10 mM Hepes (LONZA®, #BE17-737E) and 0.1% BSA (Miltenyi®, #130-091-376) on the day of the assay.
JAR cells were resuspended in the described buffer. Compounds of the present disclosure and Sahenta-DY647 were diluted 200× in the described buffer.
A total of 50 000 cells were pre-incubated for 30 min at 4° C. with the compounds of the present disclosure before adding the corresponded IC90 of Sahenta-DY647 (100 nM) and incubate once more for 30 min at 4° C. The total volume of the reaction was 100 μL (50 μL of cells, 25 μL of the compounds of the present disclosure and 25 μL of Sahenta-DY647) in a 96 well plate, U-bottom (Greiner®, #650-180). The plates were washed 2× by centrifugation (4 min, 400 rcf at 4° C.) in the same buffer. Cells were re-suspended in 70 μL of the buffer and 50 μL was transferred to a Black 384 Optiplate (PerkinElmer®, #6007279). Fluorescence (Ex=630 nm, Em=670 nm) was acquired on a Spectramax i3x (Molecular Devices®).

In test [1] the test system is stimulated primary human T cells. Put plainly: T cell proliferation assay (rescue of proliferation in the presence of ATP). It is filed as cell-based. The method, then:
The aim of this study was to determine the potency of equilibrative nucleoside transporter 1 (ENT1) inhibitors to rescue proliferation by stimulated primary human T cells incubated in the presence of 100 uM Adenosine triphosphate (ATP), in baseline conditions (condition A) or in the presence of various proteins known to bind small molecules (condition B)
Condition B: X-VIVO15, 2% Human Serum Albumine (HSA) and 0.1% α-1-Acid Glycoprotein (AAG)
Cryopreserved purified human CD3+ T cells were thawed and washed twice with RPMI1640 medium, UltraGlutamine containing 10% hiFBS.
Cells were suspended in PBS containing 10% hiFBS. Cells were stained with CFSE by adding 2 μM solution in PBS, to get a final 1 μM CFSE solution. Cells were incubated while rotating for 5 minutes. Reaction was stopped by adding PBS with 10% FBS and cells were centrifuged for 5 minutes at 1500 rpm.
Cells were resuspended at 1.6×10^6 cells/mL, either in X-VIVO15 medium or in 4% Human Serum Albumin and 0.2% α-1-Acid Glycoprotein. 50 μL of cell suspension (8×10^4 T cells) was added to wells of sterile round-bottom 96-well plates. Cells were activated by adding 50 μL of anti-CD3 anti-CD28 coated microbeads, suspended either in XVIVO-15 medium or in 4% HSA and 0.2% α-1-Acid Glycoprotein, at a ratio of one microbead per two cells.
Serial dilutions of the ENT1 inhibitors were prepared in X-VIVO15 from 10 mM stock solutions in DMSO, and 50 μL was added to the wells.
ATP powder was diluted in X-VIVO15, and 50 μL of this compound was added to the wells to reach a final assay concentration of 100 μM. Final volume of 200 μL.
The experiments were also performed in 384 well plates—all volumes reduced by a factor of 4 (12.5 μL) with a final volume of 50 μL.
Experiments were performed in duplicate. The cells were placed in a 37° C. humidified tissue culture incubator with 5% CO2 for 72 hours for 96 well plates, 96 hours for 384 well plates After 72 or 96 hours, proliferation was measured determined by CFSE dilution via flow cytometry.

Setting [2] is: Condition B: X-VIVO15, 2% Human Serum Albumine (HSA) and 0.1% α-1-Acid Glycoprotein (AAG), 100 μM ATP, read-out: (2) T Cell proliferation (Condition B) IC50.
Where [3] appears, read: Homo sapiens, Condition A: X-VIVO15, 100 μM ATP, read-out: T Cell proliferation (Condition A) IC50.

Like-named read-outs stand apart in the source and are kept apart here.

On to `COc1cc(C(=O)O[C@@H]2CCCOc3cc(cc(OC)c3OC)COCCCN3CCCN(CC2)CC3)cc(OC)c1OC` (single isomer, unassigned) [Compound 4], for which the IC50 at human ENT1 is 1 to 20 nM; in test [1] (setting [2]), < 1 nM; in test [1] (setting [3]), < 0.1 nM.
With `COc1cc(C(=O)OC2CCCOc3cc(cc(OC)c3OC)-c3cn(nn3)CCCN3CCCN(CC2)CC3)cc(OC)c1OC` (stereo not drawn) [Compound 37], the IC50 at human ENT1 was 1 to 20 nM; in test [1] (setting [2]), 20 to 500 nM; in test [1] (setting [3]), < 1 nM.
On to `COc1cc(C(=O)OC2CCCOc3cc(cc(OC)c3OC)C(=O)NCCC(=O)N3CCCN(CC2)CC3)cc(OC)c1OC` (stereo not drawn) [Compound 21], for which the IC50 at human ENT1 was 1 to 20 nM; in test [1] (setting [2]) it was 1 to 20 nM; in test [1] (setting [3]), < 0.1 nM.
As to `COc1cc(OC)cc(C(=O)OC2CCCOc3cc(cc(OC)c3OC)C(=O)OCCCN3CCCN(CC2)CC3)c1` (stereo not drawn) [Compound 15], the figures for the IC50 (on human ENT1; in test [1] (setting [2]); in test [1] (setting [3])) were 1 to 20 nM, 1 to 20 nM and < 1 nM, respectively.
For the compound `COc1cc2cc(c1OC)OCCCC(OC(=O)c1cnn(C)c1)CCN1CCCN(CCCOC2=O)CC1` (stereo not drawn) [Compound 9], the IC50 on human ENT1 was 1 to 20 nM; in test [1] (setting [2]), 1 to 20 nM; in test [1] (setting [3]), < 0.1 nM.
With `COc1cc2cc(c1OC)OCCCC(OC(=O)c1ccnn1C)CCN1CCCN(CCCOC2=O)CC1` (stereo not drawn) [Compound 10], the IC50 at human ENT1 is 1 to 20 nM; in test [1] (setting [2]) it was 20 to 500 nM; in test [1] (setting [3]), < 0.1 nM.
For the compound `COc1cc(C(=O)OC2CCCOc3cc(cc(OC)c3OC)C(=O)NCCCN3CCN(CC2)CC3=O)cc(OC)c1OC` (stereo not drawn) [Compound 30], the IC50 is 1 to 20 nM at human ENT1, 20 to 500 nM in test [1] (setting [2]) and < 1 nM in test [1] (setting [3]).
With `COc1cc2cc(c1OC)OCCCC(Oc1nncc3ccccc13)CCN1CCCN(CCCOC2=O)CC1` (stereo not drawn) [Compound 24], the IC50 at human ENT1 was 1 to 20 nM; in test [1] (setting [2]) it was 20 to 500 nM; in test [1] (setting [3]), < 0.1 nM.
For `COc1cc2cc(c1OC)OCCCC(OC(=O)c1cc(C)nn1C)CCN1CCCN(CCCOC2=O)CC1` (stereo not drawn) [Compound 12] the same measures were 1 to 20 nM, 1 to 20 nM and < 1 nM.
Turning to `COc1cc2cc(c1OC)OCCCC(OC(=O)c1ccccc1)CCN1CCCN(CCCOC2)CC1` (stereo not drawn) [Compound 2], the IC50 at human ENT1 is 1 to 20 nM; in test [1] (setting [2]) it was > 500 nM; in test [1] (setting [3]), 1 to 20 nM.
Regarding `COc1cc(C(=O)OC2CCCOc3cc(cc(OC)c3OC)COCCN3CCCN(CC2)CC3)cc(OC)c1OC` (stereo not drawn) [Compound 44], the IC50 on human ENT1 was 1 to 20 nM; in test [1] (setting [2]), 20 to 500 nM; in test [1] (setting [3]) it was < 0.1 nM.
For `COc1cc(C(=O)OC2CCCOc3cc(cc(OC)c3OC)COCCOCCN(C)CC2)cc(OC)c1OC` (stereo not drawn) [Compound 43] the same measures were 1 to 20 nM, 20 to 500 nM and < 1 nM.
Take `COc1cc2cc(c1OC)OCCCC(Oc1nccc3ccccc13)CCN1CCCN(CCCOC2=O)CC1` (stereo not drawn) [Compound 23]: the IC50 at human ENT1 fell in the range of 1 to 20 nM; in test [1] (setting [2]), 20 to 500 nM; in test [1] (setting [3]) it was 1 to 20 nM.
Consider `COc1cc2cc(c1OC)OCCCC(OC(=O)NCC(=O)N1CCOCC1)CCN1CCCN(CCCNC2=O)CC1` (stereo not drawn) [Compound 40], for which the IC50 (at human ENT1; in test [1] (setting [2]); in test [1] (setting [3])) was 20 to 500 nM throughout.

Values taken from patent US20240368183A1, “Macrocyclic Compounds Having ENT1 Inhibiting Activity” (iTeos Belgium SA, priority 2021, published 2024).
